{"source": "patent US10336732B2", "about": "“1-heterocyclyl isochromanyl compounds and analogs for treating CNS disorders” (Sunovion Pharmaceuticals Inc., priority 2015, dated 2019)", "data": [{"test_system": "α1 (non-selective)", "experiment": "In vitro radioligand binding assay, α1 (non-selective), [3H]prazosin", "parameters": "concentration or dose not given beside the values", "details": "rat cerebral cortex membranes", "method": "(§1) Certain compounds were tested by in vitro binding assays using standard procedures. […] These receptors and assays are well known to those skilled in the art, as exemplified by the following: Abramovitz, M. et al. (2000), Biochem. Biophys. Acta., 1483: 285-293 (EP4, IP (PGI2)); Aharony, D. et al. (1993), Mol. Pharmacol., 44: 356-363 (NK2); Ardati, A. et al. (1997), Mol. Pharmacol., 51: 816-824 (NOP (ORL1)); Bignon, E. et al. (1999), J. Pharmacol. Exp. Ther. 289: 742-751 (CCK1 (CCKA)); Bloomquist, B. T. et al. (1998), Biochem. Biophys. Res. Commun., 243: 474-479 (GAL2); Brockhaus, M. et al. (1990), Proc. Natl. Acad. Sci. U.S.A., 87: 3127-3131 (TNF-α); Brown, G. B. (1986), J. Neurosci., 6: 2064-2070 (Na+ channel (site 2)); Buchan, K. W. et al. (1994), Brit. J. Pharmacol., 112: 1251-1257 (ETA); Cesura, A. M. et al. (1990), Mol. Pharmacol., 37: 358-366 (MAO-A); Choi, D. S. et al. (1994), FEBS Lett., 352: 393-399 (5-HT2B); Clark, A. F. et al. (1996), Invest. Ophtalmol. Vis. Sci., 37: 805-813 (GR); Couvineau, A. et al. (1985), Biochem. J., 231: 139-143 (VPAC1 (VIP1)); Dorje, F. et al. (1991), J. Pharmacol. Exp. Ther., 256: 727-733 (M1, M2, M3, M4); Ferry, G. et al. (2001), Eur. J. Pharmacol., 417: 77-89 (PPARγ); Fuchs, S. et al. (2001), Mol. Med., 7: 115-124 (ETB); Fuhlendorff, J. et al. (1990), Proc. Natl. Acad. Sci. U.S.A., 87: 182-186 (Y2); Ganapathy M E. et al. (1999), J. Pharmacol. Exp. Ther., 289: 251-260 (sigma (non-selective)); Gopalakrishnan, M. et al. (1996), J. Pharmacol. Exp. Ther., 276: 289-297 (N neuronal α4β2); Greengrass, P. and Bremner, R. (1979), Eur. J. Pharmacol., 55: 323-326 (α1 (non-selective)); Grandy, D. K. et al. (1989), Proc. Natl. Acad. Sci. U.S.A., 86: 9762-9766 (D25); Guard, S. et al. (1993), Eur. J. Pharmacol., 240:177-184 (BB (non-selective)); Heuillet, E. et al. (1993), J. Neurochem., 60: 868-876 (NK1, P2X); Hope, A. G. et al. (1996), Brit. J. Pharmacol., 118: 1237-1245 (5-HT3); Hoyer, D. et al. (1985), Eur. J. Pharmacol., 118: 1-12 (5-HT1B); Hugues, M. et al. (1982), J. Biol. Chem., 257: 2762-2769 (5-HT2A, SKCa channel); Joseph, S. S. et al. (2004), Naun.-Sch. Arch. Pharm., 369: 525-532 (β2); Le, M. T. et al. (2005), Eur. J. Pharmacol., 513: 35-45 (AT1); Le Fur, G. et al. (1983), Life Sci., 33: 449-457) (BZD (peripheral); Lee, Y. M. et al. (1993), J. Biol. Chem., 268: 8164-8169 (CCK2 (CCKB)); Leurs, R. et al. (1994), Brit. J. Pharmacol., 112: 847-854 (H2); Levin, M. C. et al. (2002), J. Biol. Chem., 277: 30429-30435 (11); Lewin, A. H. et al. (1989), Mol. Pharmacol., 35: 189-194 (Cl− channel (GABA-gated)); Lukas, R. J. (1986), J. Neurochem., 46: 1936-1941 (N muscle-type); Luthin, D. R. et al. (1995), Mol. Pharmacol., 47: 307-313; (A2A); Mackenzie, R. G. et al. (1994), Eur. J. Pharmacol., 266: 79-85 (D3); Mulheron, J. G. et al. (1994), J. Biol. Chem., 269: 12954-12962 (5-HT1A); Meng, F. et al. (1993), Proc. Natl. Acad. Sci. U.S.A., 90: 9954-9958 (κ (KOP)); Monsma, F. J. et al. (1993), Mol. Pharmacol., 43: 320-327 (5-HT6); Neote, K. et al. (1993), Cell, 72: 415-425 (CCR1); Pacholczyk, T. et al. (1991), Nature, 350: 350-354 (sst (non-selective, norepinephrine transporter)); Peralta, E. G. et al. (1987), Embo. J., 6: 3923-3929 (M3); Pristupa, Z. B. et al. (1994), Mol. Pharmacol., 45: 125-135 (dopamine transporter); Pruneau, D. et al. (1998), Brit. J. Pharmacol., 125: 365-372 (B2); Rees, S. et al. (1994), FEBS Lett., 355: 242-246 (5-HT5a); Reynolds, I. J. et al. (1986), J. Pharmacol. Exp. Ther., 237: 731-738 (Ca2+ channel (L, verapamil site)); Rinaldi-Carmona, M. et al. (1996), J. Pharmacol. Exp. Ther., 278: 871-878 (CB1); Salvatore, C. A. et al. (1993), Proc. Natl. Acad. Sci. U.S.A., 90: 10365-10369 (A3); Sarau, H. M. et al. (1997), J. Pharmacol. Exp. Ther., 281: 1303-1311 (NK3); Schioth, H. B. et al. (1997), Neuropeptides, 31: 565-571 (MC4); Sharples, C. […]", "units": {"α1 percent inhibition of specific binding": "%"}, "values": [{"smiles": "Clc1ccc2c(c1)[C@H]([C@@H]1CCCN1)OCC2", "note": "[Compound I-29, (S)-2-((R)-7-chloroisochroman-1-yl)pyrrolidine]", "α1 percent inhibition of specific binding": 69}, {"smiles": "Fc1cccc2c1CCO[C@@H]2[C@@H]1CCN1", "note": "[Compound I-94, (S)-2-((S)-5-fluoroisochroman-1-yl)azetidine]", "α1 percent inhibition of specific binding": 72}, {"smiles": "Fc1ccc2c(c1)CCO[C@H]2[C@@H]1CCN1", "note": "[Compound I-90, (S)-2-((R)-6-fluoroisochroman-1-yl)azetidine]", "α1 percent inhibition of specific binding": 64}, {"smiles": "Fc1ccc2c(c1)[C@H]([C@@H]1CCCN1)OCC2", "note": "[Compound I-5, (2S)-2-((R)-7-fluoroisochroman-1-yl)pyrrolidine]", "α1 percent inhibition of specific binding": 59}, {"smiles": "Fc1cccc2c1[C@H]([C@@H]1CCCN1)OCC2", "note": "[Compound I-1, (S)-2-((R)-8-fluoroisochroman-1-yl)pyrrolidine]", "α1 percent inhibition of specific binding": 55}, {"smiles": "Fc1ccc2c(c1)CCO[C@H]2[C@@H]1CCCN1", "note": "[Compound I-9, (S)-2-((R)-6-fluoroisochroman-1-yl)pyrrolidine]", "α1 percent inhibition of specific binding": 73}, {"smiles": "Fc1cccc2c1CCO[C@@H]2[C@H]1CCN1", "note": "[Compound I-96, (R)-2-((S)-5-fluoroisochroman-1-yl)azetidine]", "α1 percent inhibition of specific binding": 81}]}, {"target": "T1, 5-HT7 (Homo sapiens, UniProt P34969)", "T1 construct": "expressed in transfected cells; host or cells: CHO cells", "T1 sequence (P34969 whole entry)": "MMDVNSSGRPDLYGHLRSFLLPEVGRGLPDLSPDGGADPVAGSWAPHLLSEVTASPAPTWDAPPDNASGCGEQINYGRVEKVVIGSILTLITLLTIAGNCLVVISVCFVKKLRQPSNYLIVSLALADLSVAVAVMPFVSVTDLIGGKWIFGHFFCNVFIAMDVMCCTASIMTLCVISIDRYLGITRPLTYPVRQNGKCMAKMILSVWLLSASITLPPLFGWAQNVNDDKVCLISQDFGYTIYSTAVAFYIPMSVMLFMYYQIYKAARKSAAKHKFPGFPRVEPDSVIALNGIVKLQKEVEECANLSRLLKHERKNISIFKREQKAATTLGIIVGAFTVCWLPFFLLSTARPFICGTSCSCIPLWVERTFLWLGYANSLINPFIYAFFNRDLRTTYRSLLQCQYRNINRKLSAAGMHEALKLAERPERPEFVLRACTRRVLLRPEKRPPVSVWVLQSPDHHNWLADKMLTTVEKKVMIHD", "experiment": "In vitro radioligand binding assay, 5-HT7, [3H]LSD", "parameters": "concentration or dose not given beside the values", "details": "human recombinant (CHO cells)", "method": "as §1", "units": {"5HT7 percent inhibition of specific binding": "%"}, "values": [{"smiles": "Clc1ccc2c(c1)[C@H]([C@@H]1CCCN1)OCC2", "note": "[Compound I-29, (S)-2-((R)-7-chloroisochroman-1-yl)pyrrolidine]", "5HT7 percent inhibition of specific binding": 52}, {"smiles": "Fc1cccc2c1CCO[C@@H]2[C@@H]1CCN1", "note": "[Compound I-94, (S)-2-((S)-5-fluoroisochroman-1-yl)azetidine]", "5HT7 percent inhibition of specific binding": 74}, {"smiles": "Fc1ccc2c(c1)CCO[C@H]2[C@@H]1CCN1", "note": "[Compound I-90, (S)-2-((R)-6-fluoroisochroman-1-yl)azetidine]", "5HT7 percent inhibition of specific binding": 96}, {"smiles": "Fc1ccc2c(c1)[C@H]([C@@H]1CCCN1)OCC2", "note": "[Compound I-5, (2S)-2-((R)-7-fluoroisochroman-1-yl)pyrrolidine]", "5HT7 percent inhibition of specific binding": 60}, {"smiles": "Fc1cccc2c1[C@H]([C@@H]1CCCN1)OCC2", "note": "[Compound I-1, (S)-2-((R)-8-fluoroisochroman-1-yl)pyrrolidine]", "5HT7 percent inhibition of specific binding": 88}, {"smiles": "Fc1ccc2c(c1)CCO[C@H]2[C@@H]1CCCN1", "note": "[Compound I-9, (S)-2-((R)-6-fluoroisochroman-1-yl)pyrrolidine]", "5HT7 percent inhibition of specific binding": 80}, {"smiles": "Fc1cccc2c1[C@H]([C@@H]1CCN1)OCC2", "note": "[Compound I-83, (S)-2-((R)-8-fluoroisochroman-1-yl)azetidine]", "5HT7 percent inhibition of specific binding": 99}, {"smiles": "Fc1cccc2c1CCO[C@@H]2[C@H]1CCN1", "note": "[Compound I-96, (R)-2-((S)-5-fluoroisochroman-1-yl)azetidine]", "5HT7 percent inhibition of specific binding": 69}]}]}
